Source: ChEMBL document CHEMBL1153052, “Identification of new Hsp90 inhibitors by structure-based virtual screening” (Bioorg Med Chem Lett, 2009)
Activity calls are given as the source filed them. The calls are words filed in the database; no cut-off is given here.

How the values were obtained:
[1] = biological target: T1, Heat shock protein HSP90 (Homo sapiens) (UniProt P07900+P08238); assay: Inhibition of Hsp90 in human MCF7 cells assessed as induction of Hsp70 expression at 20 to 40 uM after 24 hrs by Western blotting; format: cell-based
[2] = biological target: T1, Heat shock protein HSP90 (Homo sapiens); assay: Inhibition of Hsp90 in human MCF7 cells assessed as Her2 degradation at 20 to 40 uM after 24 hrs by Western blotting; format: cell-based
MCF7 = assay: Cytotoxicity against human MCF7 cells by SRB assay; format: functional, cell-based
[3] = biological target: ATP-dependent molecular chaperone HSP82 (Saccharomyces cerevisiae S288c, UniProt P02829); assay: Inhibition of yeast Hsp90 ATPase activity by ATPase assay using malachite green colorimetric method
ATP-dependent molecular chaperone HSP82, sequence (P02829 whole entry): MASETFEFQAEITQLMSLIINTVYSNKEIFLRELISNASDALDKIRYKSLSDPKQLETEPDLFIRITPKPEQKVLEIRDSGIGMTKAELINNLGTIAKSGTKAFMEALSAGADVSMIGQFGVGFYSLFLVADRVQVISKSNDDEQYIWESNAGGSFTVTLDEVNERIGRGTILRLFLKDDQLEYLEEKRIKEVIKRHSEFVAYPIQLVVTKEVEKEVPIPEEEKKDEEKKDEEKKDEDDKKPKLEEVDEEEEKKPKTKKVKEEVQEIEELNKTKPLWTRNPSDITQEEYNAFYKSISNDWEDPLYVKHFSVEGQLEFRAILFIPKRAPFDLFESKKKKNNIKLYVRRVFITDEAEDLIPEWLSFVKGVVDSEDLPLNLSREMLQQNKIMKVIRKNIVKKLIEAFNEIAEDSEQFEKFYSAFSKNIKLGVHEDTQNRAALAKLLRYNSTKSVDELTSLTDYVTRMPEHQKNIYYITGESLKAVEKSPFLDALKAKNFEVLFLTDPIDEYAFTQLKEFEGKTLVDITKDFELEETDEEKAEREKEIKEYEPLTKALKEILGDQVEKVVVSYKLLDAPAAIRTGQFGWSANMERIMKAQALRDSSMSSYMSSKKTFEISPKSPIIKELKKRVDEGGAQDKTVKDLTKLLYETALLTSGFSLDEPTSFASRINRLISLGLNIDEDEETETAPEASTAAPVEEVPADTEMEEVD

Compound: Cc1cccc(N2C(=O)NC(=O)/C(=C/c3ccccc3OCC(=O)O)C2=O)c1
- Activity [1]: inactive
- Activity [2]: Active

Compound: COC1=C2C[C@@H](C)C[C@H](OC)[C@H](O)[C@@H](C)/C=C(\C)[C@H](OC(N)=O)[C@@H](OC)/C=C\C=C(/C)C(=O)NC(=CC1=O)C2=O [GELDANAMYCIN]
- IC50 (MCF7): 9.6 µM

Compound: O=C(CSc1nnc(-c2cccnc2)n1-c1ccccc1)NCc1ccccc1
- Activity [1]: inactive
- Activity [2]: Active

Compound: O=C(CSc1nnc(-c2ccc3c(c2)OCO3)n1-c1ccccc1)c1ccccc1
- IC50 (MCF7): 44.6 µM
- Activity [1]: inactive
- Activity [2]: Active
- IC50 [3]: 15.4 µM

Compound: COc1ccc(-c2cc(-c3nnc(S)n3-c3cccc4ccccc34)[nH]n2)cc1
- Activity [1]: inactive
- Activity [2]: Active

Compound: O=C1NC(=O)N(c2ccccc2F)C(=O)/C1=C\c1cn(Cc2ccccc2)c2ccccc12
- IC50 (MCF7): 18.1 µM
- Activity [1]: Active
- Activity [2]: Active
- IC50 [3]: 24.6 µM

Compound: CCOc1cc(/C=C2\C(=O)NC(=O)N(Cc3ccccc3)C2=O)ccc1O
- Activity [1]: inactive
